In patent US20230365576A1, “BRM Targeting Compounds And Associated Methods Of Use” (Prelude Therapeutics Incorporated, priority 2022, published 2023):

Tests used:
SMARCA2 = target: T1, SMARCA2 (Homo sapiens, UniProt P51531); assay: SMARCA2 HiBiT degradation assay in HeLa cells; assay type: cell-based; conditions: 18 hours; for DC50: read-out: SMARCA2 IC50; for Dmax: HeLa
T1 construct: SMARCA2-HiBiT knock-in Hela monoclonal cell (CS302366); host or cells: HeLa (CRISPR HiBiT knock-in monoclonal line, heterozygous)
How it was run: (§1)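 Degradation measured as HiBiT luminescence (Nano-Glo lytic reagent) after 18 h compound exposure at 37° C. Cells were HeLa clones carrying heterozygous HiBiT tags on SMARCA2 or SMARCA4, 2500 per well; compounds at 3-fold serial dilution from 10 μM.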

SMARCA4 = target: T2, SMARCA4 (Homo sapiens, UniProt P51532); assay: SMARCA4 HiBiT degradation assay in HeLa cells; assay type: cell-based; conditions: 18 hours; for Dmax: HeLa
T2 construct: SMARCA4-HiBiT knock-in Hela monoclonal cell (CS3023226) were purchased from Promega; host or cells: HeLa (CRISPR HiBiT knock-in monoclonal line, heterozygous)
How it was run: as §1

T2 sequence (P51532 whole entry): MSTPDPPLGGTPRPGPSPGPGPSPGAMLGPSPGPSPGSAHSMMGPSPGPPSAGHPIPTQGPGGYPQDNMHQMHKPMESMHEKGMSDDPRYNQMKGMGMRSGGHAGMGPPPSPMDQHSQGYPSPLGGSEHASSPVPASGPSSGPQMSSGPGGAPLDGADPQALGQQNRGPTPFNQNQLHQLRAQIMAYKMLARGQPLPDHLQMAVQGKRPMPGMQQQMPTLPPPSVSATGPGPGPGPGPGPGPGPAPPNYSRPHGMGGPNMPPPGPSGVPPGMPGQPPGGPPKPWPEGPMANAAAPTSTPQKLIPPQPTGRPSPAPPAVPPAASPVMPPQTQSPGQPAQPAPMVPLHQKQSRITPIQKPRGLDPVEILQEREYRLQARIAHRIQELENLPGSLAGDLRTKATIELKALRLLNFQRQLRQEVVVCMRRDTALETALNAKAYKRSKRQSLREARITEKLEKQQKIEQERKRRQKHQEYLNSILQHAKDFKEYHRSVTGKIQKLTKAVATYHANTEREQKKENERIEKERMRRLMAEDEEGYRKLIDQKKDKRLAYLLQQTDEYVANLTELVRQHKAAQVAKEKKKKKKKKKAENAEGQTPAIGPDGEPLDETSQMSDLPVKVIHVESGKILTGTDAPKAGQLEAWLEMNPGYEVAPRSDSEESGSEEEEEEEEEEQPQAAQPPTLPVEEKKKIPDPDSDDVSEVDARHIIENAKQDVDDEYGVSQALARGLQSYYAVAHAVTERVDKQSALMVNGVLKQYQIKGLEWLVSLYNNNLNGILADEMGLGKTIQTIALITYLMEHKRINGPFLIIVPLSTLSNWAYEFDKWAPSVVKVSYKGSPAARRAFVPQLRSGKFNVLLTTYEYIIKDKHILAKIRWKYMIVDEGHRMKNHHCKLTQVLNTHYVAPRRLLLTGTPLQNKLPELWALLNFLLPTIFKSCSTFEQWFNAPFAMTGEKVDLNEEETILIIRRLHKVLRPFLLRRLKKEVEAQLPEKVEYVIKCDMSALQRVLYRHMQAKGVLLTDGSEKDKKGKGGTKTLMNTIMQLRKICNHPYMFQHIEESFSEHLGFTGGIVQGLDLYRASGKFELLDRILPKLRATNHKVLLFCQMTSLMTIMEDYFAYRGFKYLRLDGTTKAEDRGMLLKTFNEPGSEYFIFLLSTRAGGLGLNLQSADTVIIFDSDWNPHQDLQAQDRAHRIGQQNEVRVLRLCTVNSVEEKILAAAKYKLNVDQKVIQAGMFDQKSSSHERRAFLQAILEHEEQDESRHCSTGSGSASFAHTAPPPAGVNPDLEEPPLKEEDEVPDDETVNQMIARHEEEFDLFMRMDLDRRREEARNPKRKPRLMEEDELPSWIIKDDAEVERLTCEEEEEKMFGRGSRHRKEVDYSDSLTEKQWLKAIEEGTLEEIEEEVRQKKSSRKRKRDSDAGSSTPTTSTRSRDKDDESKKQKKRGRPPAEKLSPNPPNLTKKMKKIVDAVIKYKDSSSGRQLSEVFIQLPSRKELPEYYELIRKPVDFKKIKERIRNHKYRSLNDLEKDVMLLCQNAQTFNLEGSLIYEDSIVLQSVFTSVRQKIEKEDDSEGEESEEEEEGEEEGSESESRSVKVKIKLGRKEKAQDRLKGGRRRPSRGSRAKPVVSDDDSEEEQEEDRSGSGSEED
T1 sequence (P51531 whole entry): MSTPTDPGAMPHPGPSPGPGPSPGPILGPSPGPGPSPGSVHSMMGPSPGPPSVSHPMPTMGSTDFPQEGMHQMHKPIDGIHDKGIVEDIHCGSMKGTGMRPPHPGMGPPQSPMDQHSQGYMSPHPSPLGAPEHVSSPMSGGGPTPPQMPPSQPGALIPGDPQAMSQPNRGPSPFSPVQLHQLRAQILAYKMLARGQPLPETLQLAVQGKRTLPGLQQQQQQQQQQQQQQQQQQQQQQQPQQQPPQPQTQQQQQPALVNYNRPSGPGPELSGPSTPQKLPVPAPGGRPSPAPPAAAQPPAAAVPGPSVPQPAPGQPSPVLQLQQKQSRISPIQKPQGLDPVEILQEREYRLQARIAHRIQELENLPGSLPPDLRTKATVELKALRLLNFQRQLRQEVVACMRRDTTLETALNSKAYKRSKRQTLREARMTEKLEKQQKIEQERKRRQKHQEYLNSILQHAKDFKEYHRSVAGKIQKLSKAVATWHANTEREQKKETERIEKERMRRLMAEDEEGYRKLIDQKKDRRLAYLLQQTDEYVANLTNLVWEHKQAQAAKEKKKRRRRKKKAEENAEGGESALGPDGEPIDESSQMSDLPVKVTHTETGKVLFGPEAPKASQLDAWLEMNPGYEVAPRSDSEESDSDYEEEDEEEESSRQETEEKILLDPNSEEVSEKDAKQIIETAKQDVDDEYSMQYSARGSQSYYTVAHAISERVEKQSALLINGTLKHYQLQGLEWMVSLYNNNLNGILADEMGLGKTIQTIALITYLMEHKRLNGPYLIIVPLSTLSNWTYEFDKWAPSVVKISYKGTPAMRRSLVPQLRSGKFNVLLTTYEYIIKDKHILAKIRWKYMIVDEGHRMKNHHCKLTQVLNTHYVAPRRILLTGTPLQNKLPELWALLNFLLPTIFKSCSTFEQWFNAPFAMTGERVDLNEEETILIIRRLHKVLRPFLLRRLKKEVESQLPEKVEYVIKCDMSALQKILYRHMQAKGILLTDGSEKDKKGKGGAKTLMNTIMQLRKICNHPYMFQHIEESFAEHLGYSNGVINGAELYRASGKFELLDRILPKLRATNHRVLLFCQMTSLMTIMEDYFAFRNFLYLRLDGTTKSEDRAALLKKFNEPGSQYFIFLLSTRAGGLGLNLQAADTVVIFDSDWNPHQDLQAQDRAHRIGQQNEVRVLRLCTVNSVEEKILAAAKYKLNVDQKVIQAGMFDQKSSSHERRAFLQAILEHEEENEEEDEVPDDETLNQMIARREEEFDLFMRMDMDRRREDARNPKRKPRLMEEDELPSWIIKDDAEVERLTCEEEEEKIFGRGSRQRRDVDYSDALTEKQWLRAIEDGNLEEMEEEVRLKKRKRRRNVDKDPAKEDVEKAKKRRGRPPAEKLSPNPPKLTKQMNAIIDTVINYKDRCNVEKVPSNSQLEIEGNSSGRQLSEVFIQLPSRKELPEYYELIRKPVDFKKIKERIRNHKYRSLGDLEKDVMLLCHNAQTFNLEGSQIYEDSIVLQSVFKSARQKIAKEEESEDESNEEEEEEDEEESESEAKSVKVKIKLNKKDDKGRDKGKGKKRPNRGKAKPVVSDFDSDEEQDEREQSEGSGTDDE

DC50 (SMARCA2) [nM] | Dmax (SMARCA2) [%] | DC50 (SMARCA4) [nM] | Dmax (SMARCA4) [%] | Structure (SMILES)
< 100 | > 75 | < 100 | < 50 | C[C@@H]1CN(C[C@H]2CN(c3ccc4c(c3)CN(C3CCC(=O)NC3=O)C4=O)CCO2)C[C@@H](C)N1C(=O)N1CCN2c3cc(-c4cc(F)cc(F)c4O)nnc3NC[C@H]2C1 (stereo partly drawn) [Example 46, 3-(5-((S)-2-(((3R,5R)-4-((S)-2-(3,5-difluoro-2-hydroxyphenyl)-6,6a,7,8,9,10-hexahydro-5H-pyrazino[1′,2′:4,5]pyrazino[2,3-c]pyridazine-8-carbonyl)-3,5-dimethylpiperazin-1-yl)methyl)morpholino)-1-oxoisoindolin-2-yl)piperidine-2,6-dione]
< 100 | > 75 | < 100 | 50 to 75 | C[C@H]1CN(CC2CCN(c3ccc4c(c3)C(=O)N(C3CCC(=O)NC3=O)C4)CC2)C[C@H](C)N1C(=O)N1CCN2c3cc(-c4cc(F)cc(F)c4O)nnc3NC[C@H]2C1 (stereo partly drawn) [Example 47, 3-(6-(4-(((3S,5S)-4-((S)-2-(3,5-difluoro-2-hydroxyphenyl)-6,6a,7,8,9,10-hexahydro-5H-pyrazino[1′,2′:4,5]pyrazino[2,3-c]pyridazine-8-carbonyl)-3,5-dimethylpiperazin-1-yl)methyl)piperidin-1-yl)-1-oxoisoindolin-2-yl)piperidine-2,6-dione]
< 100 | > 75 | < 100 | < 50 | O=C1CCC(N2Cc3ccc(N4CCN(CC5CCN(C(=O)N6CCN7c8cc(-c9cc(F)cc(F)c9O)nnc8NC[C@H]7C6)CC5)CC4)cc3C2=O)C(=O)N1 (stereo partly drawn) [Example 48, 3-(6-(4-((1-((S)-2-(3,5-difluoro-2-hydroxyphenyl)-6,6a,7,8,9,10-hexahydro-5H-pyrazino[1′,2′:4,5]pyrazino[2,3-c]pyridazine-8-carbonyl)piperidin-4-yl)methyl)piperazin-1-yl)-1-oxoisoindolin-2-yl)piperidine-2,6-dione]
< 100 | > 75 | < 100 | > 75 | O=C1CCC(N2Cc3ccc(N4CCOC(CN5CC6C(C5)C6CN5CCN6c7cc(-c8cc(F)cc(F)c8O)nnc7NCC6C5)C4)cc3C2=O)C(=O)N1 [Example 49, 3-(6-(2-(((1R,5S,6s)-6-(((S)-2-(3,5-difluoro-2-hydroxyphenyl)-5,6,6a,7,9,10-hexahydro-8H-pyrazino[1′,2′:4,5]pyrazino[2,3-c]pyridazin-8-yl)methyl)-3-azabicyclo[3.1.0]hexan-3-yl)methyl)morpholino)-1-oxoisoindolin-2-yl)piperidine-2,6-dione]
< 100 | > 75 | < 100 | 50 to 75 | C[C@H]1CN2c3cc(-c4cc(F)cc(F)c4O)nnc3NC[C@H]2CN1C[C@H]1[C@@H]2CN(CC3CN(c4ccc5c(c4)C(=O)N(C4CCC(=O)NC4=O)C5)CCO3)C[C@@H]21 (stereo partly drawn) [Example 50, 3-(6-(2-(((1R,5S,6r)-6-(((6aS,9S)-2-(3,5-difluoro-2-hydroxyphenyl)-9-methyl-5,6,6a,7,9,10-hexahydro-8H-pyrazino[1′,2′:4,5]pyrazino[2,3-c]pyridazin-8-yl)methyl)-3-azabicyclo[3.1.0]hexan-3-yl)methyl)morpholino)-1-oxoisoindolin-2-yl)piperidine-2,6-dione]
< 100 | < 50 | > 1000 | < 50 | O=C1CCC(N2Cc3cc(N4CCO[C@@H](CN5CC[C@H](CN6CCN7c8cc(-c9cc(F)cc(F)c9O)nnc8NC[C@H]7C6)[C@@H](F)C5)C4)ccc3C2=O)C(=O)N1 (stereo partly drawn) [Example 51, 3-(5-((S)-2-(((3R,4R)-4-(((S)-2-(3,5-difluoro-2-hydroxyphenyl)-5,6,6a,7,9,10-hexahydro-8H-pyrazino[1′,2′:4,5]pyrazino[2,3-c]pyridazin-8-yl)methyl)-3-fluoropiperidin-1-yl)methyl)morpholino)-1-oxoisoindolin-2-yl)piperidine-2,6-dione]
< 100 | > 75 | < 100 | 50 to 75 | O=C1CCC(N2Cc3ccc(N4CC[C@@H](CN5CC[C@@H](CN6CCN7c8cc(-c9cc(F)cc(F)c9O)nnc8NC[C@H]7C6)C5)C4)cc3C2=O)C(=O)N1 (stereo partly drawn) [Example 52, 3-(6-((S)-3-(((R)-3-(((S)-2-(3,5-difluoro-2-hydroxyphenyl)-5,6,6a,7,9,10-hexahydro-8H-pyrazino[1′,2′:4,5]pyrazino[2,3-c]pyridazin-8-yl)methyl)pyrrolidin-1-yl)methyl)pyrrolidin-1-yl)-1-oxoisoindolin-2-yl)piperidine-2,6-dione]
< 100 | > 75 | < 100 | 50 to 75 | O=C1CCC(N2Cc3cc(N4CC[C@@H](CN5CCC(CN6CCN7c8cc(-c9cc(F)cc(F)c9O)nnc8NC[C@H]7C6)CC5)C4)ccc3C2=O)C(=O)N1 (stereo partly drawn) [Example 53, 3-(5-((S)-3-((4-(((S)-2-(3,5-difluoro-2-hydroxyphenyl)-5,6,6a,7,9,10-hexahydro-8H-pyrazino[1′,2′:4,5]pyrazino[2,3-c]pyridazin-8-yl)methyl)piperidin-1-yl)methyl)pyrrolidin-1-yl)-1-oxoisoindolin-2-yl)piperidine-2,6-dione]
< 100 | > 75 | < 100 | > 75 | O=C1CCC(N2Cc3ccc(N4CCN(C[C@H]5CC[C@H](CN6CCN7c8cc(-c9cc(F)cc(F)c9O)nnc8NC[C@H]7C6)CC5)CC4)cc3C2=O)C(=O)N1 (stereo partly drawn) [Example 54]
< 100 | 50 to 75 | < 100 | < 50 | O=C1CCC(N2Cc3ccc(N4CCC(CN5CCC(F)(C(=O)N6CCN7c8cc(-c9cc(F)cc(F)c9O)nnc8NC[C@H]7C6)CC5)CC4)cc3C2=O)C(=O)N1 (stereo partly drawn) [Example 55, 3-(6-(4-((4-((S)-2-(3,5-difluoro-2-hydroxyphenyl)-6,6a,7,8,9,10-hexahydro-5H-pyrazino[1′,2′:4,5]pyrazino[2,3-c]pyridazine-8-carbonyl)-4-fluoropiperidin-1-yl)methyl)piperidin-1-yl)-1-oxoisoindolin-2-yl)piperidine-2,6-dione]
< 100 | > 75 | < 100 | > 75 | O=C1CCC(N2Cc3ccc(N4CCN(C[C@H]5CC[C@@H](CN6CCN7c8cc(-c9cc(F)cc(F)c9O)nnc8NC[C@H]7C6)CC5)CC4)cc3C2=O)C(=O)N1 (stereo partly drawn) [Example 56, 3-(6-(4-(((1R,4s)-4-(((S)-2-(3,5-difluoro-2-hydroxyphenyl)-5,6,6a,7,9,10-hexahydro-8H-pyrazino[1′,2′:4,5]pyrazino[2,3-c]pyridazin-8-yl)methyl)cyclohexyl)methyl)piperazin-1-yl)-1-oxoisoindolin-2-yl)piperidine-2,6-dione]
< 100 | > 75 | < 100 | < 50 | C[C@@H]1CN(CC2CCN(c3ccc4c(c3)C(=O)N(C3CCC(=O)NC3=O)C4)CC2)[C@@H](C)CN1C(=O)N1CCN2c3cc(-c4cccc(F)c4O)nnc3NCC2(C)C1 (stereo partly drawn) [Example 57, 3-(6-(4-(((2S,5R)-4-(2-(3-fluoro-2-hydroxyphenyl)-6a-methyl-6,6a,7,8,9,10-hexahydro-5H-pyrazino[1′,2′:4,5]pyrazino[2,3-c]pyridazine-8-carbonyl)-2,5-dimethyl-piperazin-1-yl)methyl)piperidin-1-yl)-1-oxoisoindolin-2-yl)piperidine-2,6-dione]
< 100 | > 75 | < 100 | 50 to 75 | O=C1CCC(N2Cc3ccc(N4CCN(C[C@H]5CC[C@H](CN6CCN7c8cc(-c9cccc(F)c9O)nnc8NC[C@H]7C6)CC5)CC4)cc3C2=O)C(=O)N1 (stereo partly drawn) [Example 58, 3-(6-(4-(((1S,4r)-4-(((S)-2-(3-fluoro-2-hydroxyphenyl)-5,6,6a,7,9,10-hexahydro-8H-pyrazino[1′,2′:4,5]pyrazino[2,3-c]pyridazin-8-yl)methyl)cyclohexyl)methyl)piperazin-1-yl)-1-oxoisoindolin-2-yl)piperidine-2,6-dione]
< 100 | > 75 | < 100 | 50 to 75 | CC1(C)CN(CC2CCN(c3ccc4c(c3)C(=O)N([C@H]3CCC(=O)NC3=O)C4)CC2)CCN1C(=O)N1CCN2c3cc(-c4cccc(F)c4O)nnc3NC[C@]2(C(F)F)C1 [Example 65, (S)-3-(6-(4-((4-((R)-6a-(difluoromethyl)-2-(3-fluoro-2-hydroxyphenyl)-6,6a,7,8,9,10-hexahydro-5H-pyrazino[1′,2′:4,5]pyrazino[2,3-c]pyridazine-8-carbonyl)-3,3-dimethylpiperazin-1-yl)methyl)piperidin-1-yl)-1-oxoisoindolin-2-yl)piperidine-2,6-dione]
< 100 | > 75 | < 100 | > 75 | C[C@H]1CN(CC2CCN(c3ccc4c(c3)C(=O)N([C@H]3CCC(=O)NC3=O)C4)CC2)C[C@H](C)N1C(=O)N1CCN2c3cc(-c4cccc(F)c4O)nnc3NC[C@]2(C(F)F)C1 [Example 66, (S)-3-(6-(4-(((3S,5S)-4-((R)-6a-(difluoromethyl)-2-(3-fluoro-2-hydroxyphenyl)-6,6a,7,8,9,10-hexahydro-5H-pyrazino[1′,2′:4,5]pyrazino[2,3-c]pyridazine-8-carbonyl)-3,5-dimethylpiperazin-1-yl)methyl)piperidin-1-yl)-1-oxoisoindolin-2-yl)piperidine-2,6-dione]
